We go through 33 compounds from ChEMBL document CHEMBL5154869, “Discovery of 4-((E)-3,5-dimethoxy-2-((E)-2-nitrovinyl)styryl)aniline derivatives as potent and orally active NLRP3 inflammasome inhibitors for colitis” (Eur J Med Chem, 2022).

Structures are written as SMILES.

The target of data set [1] is NACHT, LRR and PYD domains-containing protein 3 (Mus musculus) (UniProt Q8R4B8). The data set can be described thus: Inhibition of NLRP3 inflammasome activation in LPS-stimulated mouse J774.A1 cells assessed as reduction in pyroptosis at 10 uM pretreated for 4 hrs with LPS and for 30 mins with compound prior to ATP addition and measured after 30 mins by PI/Hoechst33342 staining based analysis. The format is cell-based. The settings on record: time 60.0 min.
Sequence of NACHT, LRR and PYD domains-containing protein 3 (Mus musculus) (Q8R4B8 whole entry, the tested form may be a part): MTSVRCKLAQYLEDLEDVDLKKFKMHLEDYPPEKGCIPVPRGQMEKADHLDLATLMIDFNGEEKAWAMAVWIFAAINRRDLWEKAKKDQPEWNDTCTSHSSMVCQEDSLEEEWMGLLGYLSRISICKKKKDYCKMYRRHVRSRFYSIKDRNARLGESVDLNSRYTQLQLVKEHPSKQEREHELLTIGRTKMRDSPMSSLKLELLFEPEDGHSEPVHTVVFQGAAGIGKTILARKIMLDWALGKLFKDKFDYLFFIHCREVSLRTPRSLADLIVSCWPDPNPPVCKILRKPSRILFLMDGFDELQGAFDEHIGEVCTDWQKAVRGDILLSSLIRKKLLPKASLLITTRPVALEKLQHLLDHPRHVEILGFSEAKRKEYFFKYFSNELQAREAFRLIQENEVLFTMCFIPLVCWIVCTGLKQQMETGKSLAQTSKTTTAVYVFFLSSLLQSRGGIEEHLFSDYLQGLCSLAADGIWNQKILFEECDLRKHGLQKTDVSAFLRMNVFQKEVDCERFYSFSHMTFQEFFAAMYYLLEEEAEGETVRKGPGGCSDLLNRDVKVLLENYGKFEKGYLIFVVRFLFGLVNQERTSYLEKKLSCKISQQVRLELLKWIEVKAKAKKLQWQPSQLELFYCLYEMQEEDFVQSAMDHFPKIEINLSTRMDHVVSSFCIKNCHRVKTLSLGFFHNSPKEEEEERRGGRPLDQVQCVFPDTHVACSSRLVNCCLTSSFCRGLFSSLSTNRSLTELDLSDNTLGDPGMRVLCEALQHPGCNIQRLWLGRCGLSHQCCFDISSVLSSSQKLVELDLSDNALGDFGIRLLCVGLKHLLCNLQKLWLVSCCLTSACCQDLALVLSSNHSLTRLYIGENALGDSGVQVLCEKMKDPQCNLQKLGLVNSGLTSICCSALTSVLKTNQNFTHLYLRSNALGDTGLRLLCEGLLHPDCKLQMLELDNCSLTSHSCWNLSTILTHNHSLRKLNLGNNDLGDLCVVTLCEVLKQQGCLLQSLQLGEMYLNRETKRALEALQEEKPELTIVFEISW

Data set [2] concerns the target NACHT, LRR and PYD domains-containing protein 3 (Mus musculus, UniProt Q8R4B8). As to the kind of experiment: Inhibition of NLRP3 inflammasome activation in LPS/nigericin-treated C57BL/6 mouse bone marrow-derived macrophages assessed as reduction in IL-1beta secretion preincubated for 3 hrs with LPS and for 30 mins with compound prior to nigericin addition and measured after 30 mins by ELISA. The class given is cell-based, BMDM.

A short description of data set [3]: Cytotoxicity against human L02 cells assessed as reduction in cell viability incubated for 24 hrs by MTT assay. The class given is toxicity, cell-based.
Data set [4] in a line: Metabolic stability in human hepatocytes assessed as intrinsic clearance by LC-MS/MS analysis. The format is ADME, cell-based, Hepatocyte. The settings on record: read-out: CLH.
Data set [5] can be described thus: Metabolic stability in human liver microsomes assessed as intrinsic clearance by LC-MS/MS analysis. The class given is ADME, Microsome. The settings on record: read-out: CLH. On the technique in general: Microsomes from liver hold many membrane-bound enzymes, among them those of drug oxidation.
A short description of data set [6]: Metabolic stability in human liver microsomes assessed as half life by LC-MS/MS analysis. The class given is ADME, Microsome.

As usually defined, the inhibition is the drop in the measured response relative to a control, in per cent. The term IC50 denotes the concentration needed to halve the response being measured. By half-life is commonly meant the time in which the quantity being followed falls by half.

Sequence of NACHT, LRR and PYD domains-containing protein 3 (Q8R4B8 whole entry, the tested form may be a part): as above

With `COc1cc(/C=C/c2ccc(NC(=O)c3ccc(F)cc3)cc2)c(/C=C/[N+](=O)[O-])c(OC)c1`, in data set [1], the inhibition was 44%. Also, in data set [2], the IC50 was 9.34 µM. Moreover, the IC50 at 24 h in data set [3] is over 100 µM.

On to `CCc1ccc(C(=O)Nc2ccc(/C=C/c3cc(OC)cc(OC)c3/C=C/[N+](=O)[O-])cc2)cc1`, for which, in data set [1], the inhibition came out at 39%. In addition, the IC50 at 24 h in data set [3] was over 100 µM.

Regarding `COc1cc(/C=C/c2ccc(NC(=O)c3ccc(Br)cc3)cc2)c(/C=C/[N+](=O)[O-])c(OC)c1`, the inhibition in data set [1] stood at 46.2%. In addition, the half-maximal inhibitory concentration (IC50) at 24 h in data set [3] was over 100 µM.

Take `COc1cc(/C=C/c2ccc(NC(=O)c3ccccn3)cc2)c(/C=C/[N+](=O)[O-])c(OC)c1`: the inhibition in data set [1] is 60%. The IC50 at 24 h in data set [3] was over 100 µM.

For `COc1cc(/C=C/c2ccc(NC(=O)c3ccccc3OC)cc2)c(/C=C/[N+](=O)[O-])c(OC)c1`, the inhibition in data set [1] was 31%. Moreover, the half-maximal inhibitory concentration (IC50) at 24 h in data set [3] was over 100 µM.

Take `COc1cc(/C=C/c2ccc(NC(=O)c3ccccc3Br)cc2)c(/C=C/[N+](=O)[O-])c(OC)c1`: in data set [1], the inhibition was 36%. Besides, the 50% inhibitory concentration (IC50) in data set [2] is over 10 µM. In data set [3], the IC50 at 24 h was over 100 µM.

`COc1cc(/C=C/c2ccc(NC(=O)c3ccc4ccccc4c3)cc2)c(/C=C/[N+](=O)[O-])c(OC)c1`: the inhibition in data set [1] was 57.2%. Also, the concentration for half-maximal inhibition (IC50) in data set [2] was over 10 µM. Moreover, the half-maximal inhibitory concentration (IC50) at 24 h in data set [3] stood at 131 µM.

For the compound `COc1cc(/C=C/c2ccc(NC(=O)c3ccccc3Cl)cc2)c(/C=C/[N+](=O)[O-])c(OC)c1`, the inhibition in data set [1] amounted to 28.9%. Also, the concentration for half-maximal inhibition (IC50) at 24 h in data set [3] was over 100 µM.

Consider `COc1cc(/C=C/c2ccc(NC(=O)C(C)(C)C)cc2)c(/C=C/[N+](=O)[O-])c(OC)c1`, for which the inhibition in data set [1] turned out to be 52.7%. In addition, in data set [3], the half-inhibitory concentration (IC50) at 24 h is over 100 µM.

As for `COc1cc(/C=C/c2ccc(NC(=O)c3cccc(Cl)c3)cc2)c(/C=C/[N+](=O)[O-])c(OC)c1`, the inhibition in data set [1] is 24%. Further, the half-maximal inhibitory concentration (IC50) at 24 h in data set [3] was over 100 µM.

For the compound `COc1cc(/C=C/c2ccc(NC(=O)c3cc4ccccc4o3)cc2)c(/C=C/[N+](=O)[O-])c(OC)c1`, the inhibition in data set [1] was 6.47%. Also, in data set [3], the IC50 at 24 h is over 100 µM.

Turning to `COc1cc(/C=C/c2ccc(NC(=O)c3ccc(C)cc3)cc2)c(/C=C/[N+](=O)[O-])c(OC)c1`, in data set [1], the inhibition stood at 28.6%. Moreover, the IC50 at 24 h in data set [3] was over 100 µM.

Turning to `COc1cc(/C=C/c2ccc(NC(=O)c3cccc(Br)c3)cc2)c(/C=C/[N+](=O)[O-])c(OC)c1`, in data set [1], the inhibition was determined as 20.1%. For the same compound, in data set [3], the IC50 at 24 h was over 100 µM.

As for `COc1cc(/C=C/c2ccc(NC(=O)c3ccccc3F)cc2)c(/C=C/[N+](=O)[O-])c(OC)c1`, in data set [1], the inhibition came to 38.9%. Moreover, in data set [3], the half-inhibitory concentration (IC50) at 24 h is over 100 µM.

Take `COc1cc(/C=C/c2ccc(NC(=O)C3CCCO3)cc2)c(/C=C/[N+](=O)[O-])c(OC)c1` (centres undefined): the inhibition in data set [1] was 65.2%. The IC50 at 24 h in data set [3] is over 100 µM.

On to `COc1cc(/C=C/c2ccc(NC(=O)c3ccccc3)cc2)c(/C=C/[N+](=O)[O-])c(OC)c1`, for which the inhibition in data set [1] amounted to 72.2%. Moreover, the IC50 in data set [2] turned out to be 1.56 µM. The half-maximal inhibitory concentration (IC50) at 24 h in data set [3] was over 100 µM.

With `COc1cc(/C=C/c2ccc(NC(=O)c3cccs3)cc2)c(/C=C/[N+](=O)[O-])c(OC)c1`, in data set [1], the inhibition was found to be 66%. Besides, in data set [2], the IC50 stood at 2.15 µM. Further, the IC50 at 24 h in data set [3] is over 100 µM.

Consider `CCOc1ccc(C(=O)Nc2ccc(/C=C/c3cc(OC)cc(OC)c3/C=C/[N+](=O)[O-])cc2)cc1`, for which the inhibition in data set [1] is 39.9%. The half-maximal inhibitory concentration (IC50) at 24 h in data set [3] was over 100 µM.

As to `COc1cc(/C=C/c2ccc(NC(=O)c3cccc(C)c3)cc2)c(/C=C/[N+](=O)[O-])c(OC)c1`, in data set [1], the inhibition was 39.9%. Further, the IC50 at 24 h in data set [3] is over 100 µM.

`COc1ccc(C(=O)Nc2ccc(/C=C/c3cc(OC)cc(OC)c3/C=C/[N+](=O)[O-])cc2)cc1`: the inhibition in data set [1] was 41%. In data set [2], the IC50 was over 10 µM. Moreover, the IC50 at 24 h in data set [3] was over 100 µM.

In the case of `COc1cc(/C=C/c2ccc(NC(=O)COc3ccccc3)cc2)c(/C=C/[N+](=O)[O-])c(OC)c1`, the inhibition in data set [1] is 7.5%. Besides, in data set [3], the concentration for half-maximal inhibition (IC50) at 24 h is over 100 µM.

On to `O=[N+]([O-])/C=C/c1ccc2c(c1)OCO2`, for which the inhibition in data set [1] worked out at 75.1%. The half-maximal inhibitory concentration (IC50) at 24 h in data set [3] is 39.2 µM.

For the compound `COc1cc(/C=C/c2ccc(NC(=O)c3ccc(C)o3)cc2)c(/C=C/[N+](=O)[O-])c(OC)c1`, the inhibition in data set [1] amounted to 69.5%. Further, the 50% inhibitory concentration (IC50) at 24 h in data set [3] is over 100 µM.

With `COc1cc(/C=C/c2ccc(NC(=O)/C=C/c3ccccc3)cc2)c(/C=C/[N+](=O)[O-])c(OC)c1`, in data set [1], the inhibition stood at 30.7%. Besides, the half-inhibitory concentration (IC50) in data set [2] is over 10 µM. For the same compound, the IC50 at 24 h in data set [3] is over 100 µM.

Take `C=C1C(=O)[C@]23[C@H](O)[C@H]1CC[C@H]2[C@@]12CO[C@]3(O)[C@@H](O)[C@@H]1C(C)(C)CC[C@@H]2O` [ORIDONIN]: the inhibition in data set [1] stood at 73.8%. Moreover, in data set [3], the half-maximal inhibitory concentration (IC50) at 24 h stood at 42.2 µM.

Regarding `COc1cc(/C=C/c2ccc(NC(=O)C3CC3)cc2)c(/C=C/[N+](=O)[O-])c(OC)c1`, the CLint scaled in data set [4] was 11.7 mL/min/kg. Moreover, the microsomal CLint in data set [5] came out at 23.2 µL/min/mg. Moreover, in data set [6], the half-life turned out to be 59.7 min.

With `COc1cc(/C=C/c2ccc(NC(=O)c3ccc(I)cc3)cc2)c(/C=C/[N+](=O)[O-])c(OC)c1`, the inhibition in data set [1] was found to be 30.7%. Also, in data set [3], the IC50 at 24 h was over 100 µM.

`COc1cc(/C=C/c2ccc(NC(=O)c3cccc(F)c3)cc2)c(/C=C/[N+](=O)[O-])c(OC)c1`: the inhibition in data set [1] was 39.9%. In addition, the IC50 at 24 h in data set [3] was over 100 µM.

In the case of `COc1cc(/C=C/c2ccc(NC(=O)c3ccoc3)cc2)c(/C=C/[N+](=O)[O-])c(OC)c1`, the inhibition in data set [1] came out at 64.2%. In data set [3], the IC50 at 24 h was over 100 µM.

On to `COc1cc(/C=C/c2ccc(NC(=O)c3cccc4ccccc34)cc2)c(/C=C/[N+](=O)[O-])c(OC)c1`, for which the inhibition in data set [1] was 4.62%. Moreover, the half-maximal inhibitory concentration (IC50) at 24 h in data set [3] was over 100 µM.

With `COc1cccc(C(=O)Nc2ccc(/C=C/c3cc(OC)cc(OC)c3/C=C/[N+](=O)[O-])cc2)c1`, the inhibition in data set [1] was determined as 24%. The IC50 at 24 h in data set [3] was over 100 µM.

On to `COc1cc(/C=C/c2ccc(NC(=O)c3ccccc3C)cc2)c(/C=C/[N+](=O)[O-])c(OC)c1`, for which the inhibition in data set [1] turned out to be 39%. In addition, the half-maximal inhibitory concentration (IC50) at 24 h in data set [3] was over 100 µM.

For the compound `COc1cc(/C=C/c2ccc(NC(=O)c3ccc(Cl)cc3)cc2)c(/C=C/[N+](=O)[O-])c(OC)c1`, in data set [1], the inhibition is 50%. For the same compound, the IC50 at 24 h in data set [3] was over 100 µM.
